These results are taken from patent US20260297134A1, “CYCLIC PEPTIDES AS PET IMAGING AGENTS OF GRANZYME B” (Merck Sharp & Dohme LLC, priority 2023, published 2026).

In this assay the target is human Granzyme B (hGranzyme B) (Homo sapiens, UniProt P10144). Put plainly: Surface Plasmon Resonance (SPR) binding to human Granzyme B. Particulars: Table 8, 25° C. As for the experimental part:
All reagents and solvents were purchased from commercial sources and used “as is” unless otherwise noted. Reaction progress and synthetic intermediate analysis were assessed by LCMS (UV detection with ESI, APCI, or other mass detection) when applicable using a MeCN/water gradient with either TFA, formic acid, or NH4HCO3 modifier. Silica gel and reverse-phase flash column chromatography were conducted with commercially available pre-packed columns. Reverse-phase preparative HPLC purification was performed on preparative HPLC instruments with UV and MS detection using a MeCN/water gradient with either TFA, formic acid, or NH4OH modifier. Unless otherwise noted, all KD data presented in tables refers to the surface plasmon resonance assay that is described in the Biological Assay section.
The kinetics of test peptide binding to human Granzyme B (hGranzyme B) was determined by SPR. All experiments were performed at 25° C. using the Biacore 8k+ instrument (Cytiva, Marlborough, MA). The Biacore 8k+ Insight Evaluation Software Version 3.0 was used to fit the data with a 1:1 binding model to determine the association rate constant ka (M^−1s^−1, where “M” equals molar and “s” equals seconds) and the dissociation rate constant kd (s^−1). These rate constants were used to calculate the equilibrium dissociation constant, KD (M)=kd/ka. To measure the binding kinetics of peptides of interest, surfaces were prepared by a capture method to a Series S Streptavidin (SA) chip using a 1×HBS-EP+ running buffer (Cytiva). hGranzyme B was diluted to 10 μg/mL in 1×HBS-EP+ and flowed over spot 2 of each flow cell on the chip at a flow rate of 10 μl/min for 20 s to achieve a level of capture of ~1100 RU. An unmodified spot 1 of each flow cell was used as a matrix binding control or reference surface. Binding kinetics were measured using single cycle kinetics at 25° C. by injecting 5 concentrations with 3-fold serial dilutions of test peptides from […] to 1 μM. Compound dilutions were performed manually in a running buffer containing 1×HBS-EP+(Cytiva), and a final concentration of 2% DMSO. The interaction analyses over hGranzyme B, were performed using a 120 s association time and a 900 s dissociation time. All experiments were conducted at a flow rate of […] with a data collection rate of 10 Hz.
Peptide dilution series included 2 zero concentration points (no compound) which were averaged and subtracted from the peptide concentration injection as DMSO control responses. Binding data acquired from the reference surface (matrix binding control) were subtracted from the binding data for hGranzyme B surface on the chip to determine specific binding. Next, the association phase data were solvent corrected to account for any signal fluctuation throughout the experiment due to subtle DMSO concentration differences. Corrected response data were analyzed using the Biacore 8k+ Evaluation Software Version 3.0 according to the manufacturer. SPR data for representative compounds of the disclosure are found in Table 8.

Bridge positions count the residues as written; N and C are the ends. Square brackets hold non-standard residues; d marks the D form. Peptide text beside a SMILES is read from it. * marks the point of attachment. X1 = O=C(O)CN1CCN(CC(=O)O)CC(Cc2ccc(NC(=S)*)cc2)N(CC(=O)O)CC1; NMeF = CN[C@@H](Cc1ccccc1)C(=O)O; NMeA = CN[C@@H](C)C(=O)O

Sequence of human Granzyme B (hGranzyme B) (P10144 21-247): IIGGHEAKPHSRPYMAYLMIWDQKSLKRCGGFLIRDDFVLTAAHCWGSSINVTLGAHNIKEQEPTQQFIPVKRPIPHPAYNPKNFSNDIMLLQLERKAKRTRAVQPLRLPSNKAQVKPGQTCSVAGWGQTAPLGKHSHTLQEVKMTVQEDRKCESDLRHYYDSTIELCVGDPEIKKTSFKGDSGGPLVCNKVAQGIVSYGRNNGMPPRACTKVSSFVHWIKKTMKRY

In the case of `CC(C)[C@@H]1NC(=O)[C@H](CC(=O)O)NC(=O)[C@H](Cc2ccc(O)cc2)NC(=O)[C@H](Cc2ccc(O)cc2)NC(=O)[C@H](Cc2ccccc2)N(C)C(=O)[C@H](Cc2ccccc2)N(C)C(=O)[C@H](Cc2ccccc2)NC(=O)CSC[C@@H](C(=O)NCC(=O)NCC(=O)N[C@@H](CCCCNC(=S)Nc2ccc(CC3CN(CC(=O)O)CCN(CC(=O)O)CCN3CC(=O)O)cc2)C(N)=O)NC(=O)[C@H](Cc2c[nH]cn2)NC(=O)[C@H](Cc2ccccc2)N(C)C(=O)[C@H](Cc2ccc(O)cc2)NC(=O)[C@H](C(C)C)NC(=O)[C@H](CC(=O)O)NC(=O)[C@H](C)NC(=O)[C@H](CC(=O)O)NC1=O` (some centres unmarked) [Compound 8a, *F.NMeF.NMeF.Y.Y.D.V.D.A.D.V.Y.NMeF.H.*C.G.G.K(NOTA)-NH2] ({CH2CO}-F[NMeF][NMeF]YYDVDADVY[NMeF]HCGGK(X1)-NH2; thioether N-15), the Kd worked out at 3.7 nM. This counts as single-digit nanomolar.

`CC(C)[C@@H]1NC(=O)[C@H](CC(=O)O)NC(=O)[C@H](Cc2ccc(O)cc2)NC(=O)[C@H](Cc2ccc(O)cc2)NC(=O)[C@H](Cc2ccccc2)N(C)C(=O)[C@H](Cc2ccccc2)N(C)C(=O)[C@H](C)NC(=O)CSC[C@@H](C(=O)NCC(N)=O)NC(=O)[C@H](Cc2c[nH]cn2)NC(=O)[C@H](Cc2ccccc2)N(C)C(=O)[C@H](Cc2ccc(O)cc2)NC(=O)[C@H](C(C)C)NC(=O)[C@H](CC(=O)O)NC(=O)[C@H](C(C)C)NC(=O)[C@H](CC(=O)O)NC1=O` [Compound 19a, *A.NMeF.NMeF.Y.Y.D.V.D.V.D.V.Y.NMeF.H.*C.G-NH2] ({CH2CO}-A[NMeF][NMeF]YYDVDVDVY[NMeF]HCG-NH2; thioether N-15): the affinity, expressed as Kd, was 165 nM. Against the preceding molecule, the Kd is about 45-fold higher.

Consider `CC(C)[C@@H]1NC(=O)[C@H](CC(=O)O)NC(=O)[C@H](Cc2ccc(O)cc2)NC(=O)[C@H](Cc2ccc(O)cc2)NC(=O)[C@H](Cc2ccccc2)N(C)C(=O)[C@H](C)N(C)C(=O)[C@H](Cc2ccccc2)NC(=O)CSC[C@@H](C(=O)NCC(N)=O)NC(=O)[C@H](Cc2c[nH]cn2)NC(=O)[C@H](Cc2ccccc2)N(C)C(=O)[C@H](Cc2ccc(O)cc2)NC(=O)[C@H](C(C)C)NC(=O)[C@H](CC(=O)O)NC(=O)[C@H](C(C)C)NC(=O)[C@H](CC(=O)O)NC1=O` [Compound 25a, *F.NMeA.NMeF.Y.Y.D.V.D.V.D.V.Y.NMeF.H.*C.G-NH2] ({CH2CO}-F[NMeA][NMeF]YYDVDVDVY[NMeF]HCG-NH2; thioether N-15), for which the affinity, expressed as Kd, was 199 nM.

The molecule `CC(C)[C@@H]1NC(=O)[C@H](CC(=O)O)NC(=O)[C@H](C)NC(=O)[C@H](Cc2ccc(O)cc2)NC(=O)[C@H](Cc2ccccc2)N(C)C(=O)[C@H](Cc2ccccc2)N(C)C(=O)[C@H](Cc2ccccc2)NC(=O)CSC[C@@H](C(=O)NCC(N)=O)NC(=O)[C@H](Cc2c[nH]cn2)NC(=O)[C@H](Cc2ccccc2)N(C)C(=O)[C@H](Cc2ccc(O)cc2)NC(=O)[C@H](C(C)C)NC(=O)[C@H](CC(=O)O)NC(=O)[C@H](C(C)C)NC(=O)[C@H](CC(=O)O)NC1=O` [Compound 15a, *F.NMeF.NMeF.Y.A.D.V.D.V.D.V.Y.NMeF.H.*C.G-NH2] ({CH2CO}-F[NMeF][NMeF]YADVDVDVY[NMeF]HCG-NH2; thioether N-15) displayed a Kd of 0.8 nM.

`CC(C)[C@@H]1NC(=O)[C@H](CC(=O)O)NC(=O)[C@H](Cc2ccc(O)cc2)NC(=O)[C@H](C)NC(=O)[C@H](Cc2ccccc2)N(C)C(=O)[C@H](Cc2ccccc2)N(C)C(=O)[C@H](Cc2ccccc2)NC(=O)CSC[C@@H](C(=O)NCC(N)=O)NC(=O)[C@H](Cc2c[nH]cn2)NC(=O)[C@H](Cc2ccccc2)N(C)C(=O)[C@H](Cc2ccc(O)cc2)NC(=O)[C@H](C(C)C)NC(=O)[C@H](CC(=O)O)NC(=O)[C@H](C(C)C)NC(=O)[C@H](CC(=O)O)NC1=O` [Compound 23a, *F.NMeF.NMeF.A.Y.D.V.D.V.D.V.Y.NMeF.H.*C.G-NH2] ({CH2CO}-F[NMeF][NMeF]AYDVDVDVY[NMeF]HCG-NH2; thioether N-15) had a Kd of 752 nM.

In turn, `CC(C)[C@@H]1NC(=O)[C@H](CC(=O)O)NC(=O)[C@H](Cc2ccc(O)cc2)NC(=O)[C@H](Cc2ccc(O)cc2)NC(=O)[C@H](Cc2ccccc2)N(C)C(=O)[C@H](Cc2ccccc2)N(C)C(=O)[C@H](Cc2ccccc2)NC(=O)CSC[C@@H](C(=O)NCC(N)=O)NC(=O)[C@H](Cc2c[nH]cn2)NC(=O)[C@H](Cc2ccccc2)N(C)C(=O)[C@H](Cc2ccc(O)cc2)NC(=O)[C@H](C(C)C)NC(=O)[C@H](CC(=O)O)NC(=O)[C@H](C)NC(=O)[C@H](CC(=O)O)NC1=O` [Compound 16a, *F.NMeF.NMeF.Y.Y.D.V.D.A.D.V.Y.NMeF.H.*C.G-NH2] ({CH2CO}-F[NMeF][NMeF]YYDVDADVY[NMeF]HCG-NH2; thioether N-15) returned a Kd of 4.7 nM.

With `CC(C)[C@@H]1NC(=O)[C@H](CC(=O)O)NC(=O)[C@H](Cc2ccc(O)cc2)NC(=O)[C@H](Cc2ccc(O)cc2)NC(=O)[C@H](C)NC(=O)[C@H](Cc2ccccc2)N(C)C(=O)[C@H](Cc2ccccc2)NC(=O)CSC[C@@H](C(=O)NCC(N)=O)NC(=O)[C@H](Cc2c[nH]cn2)NC(=O)[C@H](Cc2ccccc2)N(C)C(=O)[C@H](Cc2ccc(O)cc2)NC(=O)[C@H](C(C)C)NC(=O)[C@H](CC(=O)O)NC(=O)[C@H](C(C)C)NC(=O)[C@H](CC(=O)O)NC1=O` [Compound 18a, *F.NMeF.A.Y.Y.D.V.D.V.D.V.Y.NMeF.H.*C.G-NH2] ({CH2CO}-F[NMeF]AYYDVDVDVY[NMeF]HCG-NH2; thioether N-15), the dissociation constant (Kd) was 68 nM. Against the preceding molecule, the Kd is about 14-fold higher.

With `CC(C)[C@@H]1NC(=O)[C@H](CC(=O)O)NC(=O)[C@H](Cc2ccc(O)cc2)NC(=O)[C@H](Cc2ccc(O)cc2)NC(=O)[C@H](Cc2ccccc2)N(C)C(=O)[C@H](Cc2ccccc2)N(C)C(=O)[C@H](Cc2ccccc2)NC(=O)CSC[C@@H](C(=O)NCC(=O)N[C@@H](CCCCN)C(N)=O)NC(=O)[C@H](Cc2c[nH]cn2)NC(=O)[C@H](Cc2ccccc2)N(C)C(=O)[C@H](Cc2ccc(O)cc2)NC(=O)[C@H](C(C)C)NC(=O)[C@H](CC(=O)O)NC(=O)[C@H](C(C)C)NC(=O)[C@H](CC(=O)O)NC1=O` [Compound 12a, *F.NMeF.NMeF.Y.Y.D.V.D.V.D.V.Y.NMeF.H.*C.G.K-NH2] ({CH2CO}-F[NMeF][NMeF]YYDVDVDVY[NMeF]HCGK-NH2; thioether N-15), the affinity, expressed as Kd, was 2.6 nM.

For the molecule `CC(C)[C@@H]1NC(=O)[C@H](CC(=O)O)NC(=O)[C@H](Cc2ccc(O)cc2)NC(=O)[C@H](Cc2ccc(O)cc2)NC(=O)[C@H](Cc2ccccc2)N(C)C(=O)[C@H](Cc2ccccc2)N(C)C(=O)[C@H](Cc2ccccc2)NC(=O)CSC[C@@H](C(=O)NCC(=O)NCC(=O)N[C@@H](CCCCN)C(N)=O)NC(=O)[C@H](Cc2c[nH]cn2)NC(=O)[C@H](Cc2ccccc2)N(C)C(=O)[C@H](Cc2ccc(O)cc2)NC(=O)[C@H](C(C)C)NC(=O)[C@H](CC(=O)O)NC(=O)[C@H](C(C)C)NC(=O)[C@H](CC(=O)O)NC1=O` [Compound 2a, *F.NMeF.NMeF.Y.Y.D.V.D.V.D.V.Y.NMeF.H.*C.G.G.K-NH2] ({CH2CO}-F[NMeF][NMeF]YYDVDVDVY[NMeF]HCGGK-NH2; thioether N-15), the Kd worked out at 1.1 nM.

The molecule `CC(C)[C@@H]1NC(=O)[C@H](CC(=O)O)NC(=O)[C@H](Cc2ccc(O)cc2)NC(=O)[C@H](Cc2ccc(O)cc2)NC(=O)[C@H](C)N(C)C(=O)[C@H](Cc2ccccc2)N(C)C(=O)[C@H](Cc2ccccc2)NC(=O)CSC[C@@H](C(=O)NCC(N)=O)NC(=O)[C@H](Cc2c[nH]cn2)NC(=O)[C@H](Cc2ccccc2)N(C)C(=O)[C@H](Cc2ccc(O)cc2)NC(=O)[C@H](C(C)C)NC(=O)[C@H](CC(=O)O)NC(=O)[C@H](C(C)C)NC(=O)[C@H](CC(=O)O)NC1=O` [Compound 24a, *F.NMeF.NMeA.Y.Y.D.V.D.V.D.V.Y.NMeF.H.*C.G-NH2] ({CH2CO}-F[NMeF][NMeA]YYDVDVDVY[NMeF]HCG-NH2; thioether N-15) yielded a Kd of 5.4 nM.

For `CC(C)[C@@H]1NC(=O)[C@H](C)NC(=O)[C@H](C(C)C)NC(=O)[C@H](CC(=O)O)NC(=O)[C@H](Cc2ccc(O)cc2)NC(=O)[C@H](Cc2ccc(O)cc2)NC(=O)[C@H](Cc2ccccc2)N(C)C(=O)[C@H](Cc2ccccc2)N(C)C(=O)[C@H](Cc2ccccc2)NC(=O)CSC[C@@H](C(=O)NCC(N)=O)NC(=O)[C@H](Cc2c[nH]cn2)NC(=O)[C@H](Cc2ccccc2)N(C)C(=O)[C@H](Cc2ccc(O)cc2)NC(=O)[C@H](C(C)C)NC(=O)[C@H](CC(=O)O)NC1=O` [Compound 22a, *F.NMeF.NMeF.Y.Y.D.V.A.V.D.V.Y.NMeF.H.*C.G-NH2] ({CH2CO}-F[NMeF][NMeF]YYDVAVDVY[NMeF]HCG-NH2; thioether N-15), the dissociation constant (Kd) amounted to 548 nM. Against the preceding molecule, the Kd is about 100-fold higher.
